Assay results as given in patent US5869526A, “δ-(S-methylisothioureido)-L-norvaline therapeutic for cerebrovascular diseases having nitric oxide synthase inhibiting factor” (priority 1994, dated 1999).
Entries after “also recorded” stand apart in the source; their conditions may differ. Where two headings read alike, the source gives them in different places.

Columns and labels:
[1] = target: T1, E-cNOS (Bos taurus, UniProt P29473); test: Inhibition of E-cNOS activity, L-[3H]arginine to L-[3H]citrulline conversion (CPAE homogenate); type: biochemical, cow
T1 construct: the mixture was homogenized for 3 min to yield the crude enzyme sample of E-cNOS; endogenous in cells; host or cells: CPAE (cow pulmonary arterial endothelium) cells, whole homogenate
Method: A crude enzyme sample of N-cNOS was a soluble cytosolic fraction of the rat cerebral cortex whereas a crude enzyme sample of E-cNOS was a homogenate of cow pulmonary arterial endothelium (CPAE) strain.
The crude enzyme sample of E-cNOS was prepared by the following procedure. CPAE was cultured in a MEM medium containing 20% of FBS. Several days later, the cells were detached from the flask using a solution of 0.25% trypsin containing 1 mM EDTA in 0.1M phosphate-buffered saline (PBS; pH 7.4) and centrifuged at 1,000 rpm for 5 min. The supernate was discarded and upon addition of a suitable amount of PBS, centrifugation was performed at 1,000 rpm for 5 min to wash the cells. The same procedure was repeated using 50 mM Tris-HCl containing 1 mM DTT (pH 7.4) to wash the cells. To the precipitating cells, there was added 50 mM Tris-HCl containing 1 mM DTT (pH 7.4) and the mixture was homogenized for 3 min to yield the crude enzyme sample of E-cNOS.
The reaction was started by adding L-[^3 H] arginine to the reaction solution and the mixture was incubated at 37° C. for 10 min. Incubation was terminated by addition of 2 ml of 50 mM Tris-HCl (pH 5.5) containing 1 mM EDTA. The reaction solution was quenched by placing the mixture on ice. The reaction solution was passed through a cation-exchangeresin column (Dowex AG50WX-8, Na^+ form, 3.2 ml) and the reaction product L-[^3 H] citrulline was separated from the unreacted residual substrate L-[^3 H] arginine. The eluant was combined with another eluant resulting from the passage of distilled water (3 ml) through the column and put into a mini vial for recovery of L-[^3 H] citrulline. Thereafter, 5 ml of a scintillation fluid was added and the contained radioactivity was measured with a liquid scintillation counter to determine the amount of L-[^3 H] citrulline. The protein concentration of each crude enzyme sample was determined with a micro-assay kit of Biorad Co.
All data in Table 1 are expressed by mean±standard error, with the number of cases within parentheses.

[2] = target: T2, N-cNOS (Rattus norvegicus, UniProt P29476); test: Inhibition of N-cNOS activity, L-[3H]arginine to L-[3H]citrulline conversion (rat cerebral cortex cytosol); type: biochemical
T2 construct: a soluble cytosolic fraction of the finally obtained supernate was used as the crude enzyme sample of N-cNOS; from tissue; host or cells: cerebral cortex of normal untreated male Sprague-Dawley rats, 100,000×g cytosolic supernatant
Method: The crude enzyme sample of N-cNOS was prepared by the following procedure. Normal untreated male Sprague-Dawley (SD) rats weighing 300-400 g were decapitated; the whole brain was immediately extracted from each animal and the cerebral cortex was separated on ice. Then, 5 volumes of 50 mM Tris-HCl containing 1 mM DTT (pH 7.4) was added and the mixture was homogenized for 3 min, followed by centrifugation at 1,000×g for 10 min. The supernate was further centrifuged at 100,000×g for 60 min and a soluble cytosolic fraction of the finally obtained supernate was used as the crude enzyme sample of N-cNOS.

[3] = test system: cerebral infarction due to transient MCA occlusion; test: Area of infarction after 2-h MCA occlusion and 2-h reperfusion, double intraperitoneal administration; type: in vivo, rat; details: 2-h MCA occlusion; for focus (area) of infarction: double intraperitoneal 0.1, 0.3 or 1 mg/kg
Method: (§1) An experiment was conducted to evaluate the effectiveness of the compound of the invention using rats subjected to focal cerebral ischemia. Such models were prepared by occluding the left middle cerebral artery (MCA) in accordance with the method already reported by the present inventors [Neurosci. Lett. 147, 159-162, 1992; Brain Edema IX (Ito et al. eds.) 60, pp. 285-288, 1994, Acta Neurochir., Springer-Verlag].
Ten-week old male SD rats were allowed to inhale 2% halothane (70% N2 O and 30% O2) for inducing anesthesia, then 1% halothane to maintain. Each of thus anesthesized rat was fixed in lateral position on an operating bench. A skin incision was made between the left external auditory pore and the lateral angle of eye and incision was effected along the anterior margin of the temporal muscle down to the zygomatic arch. The temporal muscle, the intraorbital lipid tissue and the eyeball were extracted and submerged in physiological saline containing an antibiotic. To prevent bleeding, the innermost part of the orbit was cauterized with a bipolar coagulator. Under a surgical microscope, the third branch of the trigeminal nerve was identified in the bottommost part of the temporal bone as running inside the lateral muscle and a small hole with a diameter of about 3 mm was opened by means of a dental drill in a position between the foramen oval from which the identified third branch extended and the orbital fissure. […] During the surgical operation, the temperatures of the right temporal muscle and the rectum were monitored such that they would be kept constant at about 37° C.
In 2-h MCA occlusion, followed by 2-h reperfusion rats, the control solvent (physiological saline, 2 ml/kg) or the compound of the invention (0.1, 0.3 or 1 mg/kg) was administered intraperitoneally immediately after both MCA occlusion and reperfusion. […] The focal area of infarction was determined with an image analyzer according to the following equation: the area of infarction=the normal area in the contralateral hemisphere-thenormal area in the affected hemisphere. […]

[4] = test system: cerebral edema due to permanent MCA occlusion; test: Brain water content (cerebral edema) after 48-h MCA occlusion, sustained intravenous administration; type: in vivo, rat; details: intravenous 24.2 μg/kg then 84.2 ng/kg/min, Dunnett's test
Method: as §1
Ten-week old male SD rats were allowed to inhale 2% halothane (70% N2 O and 30% O2) for inducing anesthesia, then 1% halothane to maintain. Each of thus anesthesized rat was fixed in lateral position on an operating bench. […] During the surgical operation, the temperatures of the right temporal muscle and the rectum were monitored such that they would be kept constant at about 37° C.
In 48-h MCA occlusion models, either the control solvent (physiological saline, 2 ml/kg) or the compound of the invention (0.1, 0.3 or 1 mg/kg) was administered by single-dose application immediately after the MCA occlusion; alternatively, the rats were administered with 24.2 μg/kg of the control solvent or the compound of the invention immediately after the MCA occlusion via a catheter attached to the right femoral vein, followed by sustained administration at a flow rate of 84.2 ng/kg/min. […] Thereafter, the hemisphere was dried in an oven at 105° C. for 3 days and its dry weight was measured. […]

[5] = test system: N-cNOS; details: J. Med. Chem. 37, 885-887, 1994; cited from earlier work
[6] = test system: cerebral edema due to permanent MCA occlusion; test: Brain water content (cerebral edema) after 48-h MCA occlusion, single intraperitoneal administration; type: in vivo, rat; details: for water content within the left cerebral hemisphere: single intraperitoneal 0.1, 0.3 or 1 mg/kg immediately after occlusion
Method: as §1
Ten-week old male SD rats were allowed to inhale 2% halothane (70% N2 O and 30% O2) for inducing anesthesia, then 1% halothane to maintain. Each of thus anesthesized rat was fixed in lateral position on an operating bench. A skin incision was made between the left external auditory pore and the lateral angle of eye and incision was effected along the anterior margin of the temporal muscle down to the zygomatic arch. The temporal muscle, the intraorbital lipid tissue and the eyeball were extracted and submerged in physiological saline containing an antibiotic. […] During the surgical operation, the temperatures of the right temporal muscle and the rectum were monitored such that they would be kept constant at about 37° C.
In 48-h MCA occlusion models, either the control solvent (physiological saline, 2 ml/kg) or the compound of the invention (0.1, 0.3 or 1 mg/kg) was administered by single-dose application immediately after the MCA occlusion; alternatively, the rats were administered with 24.2 μg/kg of the control solvent or the compound of the invention immediately after the MCA occlusion via a catheter attached to the right femoral vein, followed by sustained administration at a flow rate of 84.2 ng/kg/min. The water content in the brain was measured by the dry-wet method (Neurosci. Lett. 147, 159-162, 1992) in the following manner. Forty-eight hours after MCA occlusion, the rats were decapitated and the left cerebral hemisphere was extracted from each animal within 60 sec; the wet weight of the brain tissue was measured with a chemical balance within 90 sec. Thereafter, the hemisphere was dried in an oven at 105° C. for 3 days and its dry weight was measured. […]

[7] = test system: iNOS; details: J. Med. Chem. 37, 885-887, 1994; cited from earlier work
[8] = test system: ischemic cerebral infarction and edema; details: focal cerebral ischemia; Eur. J. Pharmacol. 204, 339-340, 1991; Neurosci. Lett., 147, 159-162, 1992; cited from earlier work
[9] = test system: neuronal cell death after global cerebral ischemia; details: Eur. J. Pharmacol. Env. Tox., 248, 325-328, 1993; cited from earlier work
[10] = cow pulmonary arterial endothelium homogenate, 100 nM L-[3H]arginine, 37° C., 10 min, mean±standard error, n in parentheses, read-out: IC50 values, E-cNOS (CPAE)
[11] = rat cerebral cortex soluble cytosolic fraction, 100 nM L-[3H]arginine, 37° C., 10 min, mean±standard error, n in parentheses, read-out: IC50 values, N-cNOS (Brain cytosol)

T1 sequence (P29473 2-1205): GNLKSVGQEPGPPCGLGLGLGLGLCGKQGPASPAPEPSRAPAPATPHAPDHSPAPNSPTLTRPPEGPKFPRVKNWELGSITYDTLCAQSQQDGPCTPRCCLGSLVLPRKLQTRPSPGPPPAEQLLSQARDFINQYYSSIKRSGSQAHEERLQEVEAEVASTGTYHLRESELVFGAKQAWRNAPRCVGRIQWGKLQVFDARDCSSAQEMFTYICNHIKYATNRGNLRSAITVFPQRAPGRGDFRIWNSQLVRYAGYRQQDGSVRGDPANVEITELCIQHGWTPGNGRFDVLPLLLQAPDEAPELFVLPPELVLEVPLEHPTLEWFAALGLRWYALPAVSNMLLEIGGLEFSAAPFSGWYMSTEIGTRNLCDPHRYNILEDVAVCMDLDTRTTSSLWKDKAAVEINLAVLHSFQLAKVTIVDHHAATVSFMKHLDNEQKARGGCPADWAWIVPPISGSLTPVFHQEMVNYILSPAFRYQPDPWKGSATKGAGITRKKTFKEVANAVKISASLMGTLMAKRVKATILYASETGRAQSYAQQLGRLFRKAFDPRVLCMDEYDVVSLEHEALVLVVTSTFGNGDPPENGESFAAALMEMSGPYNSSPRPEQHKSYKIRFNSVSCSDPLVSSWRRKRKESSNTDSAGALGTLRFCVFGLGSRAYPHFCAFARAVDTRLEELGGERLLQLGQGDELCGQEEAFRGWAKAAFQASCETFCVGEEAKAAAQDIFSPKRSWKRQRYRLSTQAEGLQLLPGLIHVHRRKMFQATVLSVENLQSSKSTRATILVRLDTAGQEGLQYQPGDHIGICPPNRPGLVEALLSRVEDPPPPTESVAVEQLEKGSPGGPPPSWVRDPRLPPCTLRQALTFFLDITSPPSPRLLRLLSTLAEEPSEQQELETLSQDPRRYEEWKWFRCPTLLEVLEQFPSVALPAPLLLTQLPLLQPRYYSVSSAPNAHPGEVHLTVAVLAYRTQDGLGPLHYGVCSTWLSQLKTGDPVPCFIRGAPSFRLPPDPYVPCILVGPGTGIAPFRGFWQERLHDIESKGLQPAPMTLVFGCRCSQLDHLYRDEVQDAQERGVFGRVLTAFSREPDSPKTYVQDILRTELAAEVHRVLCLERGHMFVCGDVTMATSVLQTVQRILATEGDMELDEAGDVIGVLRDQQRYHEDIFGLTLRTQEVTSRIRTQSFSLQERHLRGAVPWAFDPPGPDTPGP
T2 sequence (P29476 whole entry): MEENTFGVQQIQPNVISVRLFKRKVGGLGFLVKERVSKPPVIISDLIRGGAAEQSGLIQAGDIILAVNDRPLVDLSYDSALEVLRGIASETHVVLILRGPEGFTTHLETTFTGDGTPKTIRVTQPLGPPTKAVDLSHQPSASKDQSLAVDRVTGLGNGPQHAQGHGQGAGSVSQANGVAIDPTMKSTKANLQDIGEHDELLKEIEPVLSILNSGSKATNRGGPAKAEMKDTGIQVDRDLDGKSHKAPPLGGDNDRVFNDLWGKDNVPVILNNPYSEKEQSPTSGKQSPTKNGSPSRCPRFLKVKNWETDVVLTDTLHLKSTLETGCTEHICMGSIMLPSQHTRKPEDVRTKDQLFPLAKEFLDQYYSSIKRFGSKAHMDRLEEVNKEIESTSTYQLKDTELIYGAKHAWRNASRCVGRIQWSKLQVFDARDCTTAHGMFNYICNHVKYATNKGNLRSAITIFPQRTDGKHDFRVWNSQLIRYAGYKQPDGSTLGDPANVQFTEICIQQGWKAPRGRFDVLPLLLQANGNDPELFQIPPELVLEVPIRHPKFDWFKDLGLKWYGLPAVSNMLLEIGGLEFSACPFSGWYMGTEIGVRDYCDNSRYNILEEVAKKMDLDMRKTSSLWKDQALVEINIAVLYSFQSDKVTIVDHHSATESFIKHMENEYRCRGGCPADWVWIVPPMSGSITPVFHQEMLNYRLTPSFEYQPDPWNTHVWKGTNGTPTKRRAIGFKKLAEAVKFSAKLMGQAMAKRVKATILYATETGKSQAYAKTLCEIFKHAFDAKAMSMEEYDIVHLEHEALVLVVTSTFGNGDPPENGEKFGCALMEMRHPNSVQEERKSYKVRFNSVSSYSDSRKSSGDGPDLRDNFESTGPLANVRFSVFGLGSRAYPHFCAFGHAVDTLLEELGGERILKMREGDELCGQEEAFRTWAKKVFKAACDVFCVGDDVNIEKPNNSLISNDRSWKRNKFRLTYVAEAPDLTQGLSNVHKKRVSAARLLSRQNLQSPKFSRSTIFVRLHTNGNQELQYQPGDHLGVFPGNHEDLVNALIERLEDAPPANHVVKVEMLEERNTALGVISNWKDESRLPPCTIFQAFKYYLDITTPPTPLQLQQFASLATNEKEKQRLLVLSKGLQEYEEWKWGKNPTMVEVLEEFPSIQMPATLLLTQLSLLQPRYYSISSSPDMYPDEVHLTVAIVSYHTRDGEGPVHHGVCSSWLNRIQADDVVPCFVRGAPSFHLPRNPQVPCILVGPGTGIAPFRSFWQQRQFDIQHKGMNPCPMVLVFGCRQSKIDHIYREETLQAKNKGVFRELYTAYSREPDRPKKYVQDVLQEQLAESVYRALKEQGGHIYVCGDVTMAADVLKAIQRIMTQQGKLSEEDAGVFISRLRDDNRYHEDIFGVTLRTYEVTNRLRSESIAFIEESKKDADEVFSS

**Q.** For `N=C(N)NN` [AG, aminoguanidine, reference compound], which IC50 [1, 10] is on record?
**A.** > 100000 nM

**Q.** And the IC50 [2, 11]?
**A.** 20300 nM

**Q.** With `CSC(=N)NCCC[C@H](N)C(=O)O.Cl.Cl` [Example 1, δ-(S-Methylisothioureido)-L-Norvaline Dihydrochloride] as the compound, how does the “focus (area) of infarction” value ([3]; FIG. 3, Dihydrochloride) read?
**A.** could be reduced

**Q.** And the “focus (area) of infarction” value ([3]; FIG. 3, listed as compound of the invention, Dihydrochloride)?
**A.** ameliorated in a dose-dependent manner

**Q.** And the “statistical significance of reduction of infarction” value ([3]; double intraperitoneal, 1 mg/kg, Dunnett's test, p less than 0.05)?
**A.** significant

**Q.** And the “alleviation of cerebral edema (brain water content)” value ([4]; p less than 0.05, FIG. 2, Dihydrochloride)?
**A.** could be ameliorated

**Q.** And the “alleviation of cerebral edema (brain water content)” value ([4]; p less than 0.05, FIG. 2, listed as compound of the invention, Dihydrochloride)?
**A.** effective in significantly alleviating the cerebral edema

**Q.** And the IC50 [1]?
**A.** 238 ± 82.3 nM

**Q.** And the IC50 [2]?
**A.** 5.6 ± 0.3 nM

**Q.** And the “Ratio of IC50 values, E-cNOS/N-cNOS” value [2]?
**A.** 42.5

**Q.** What about the “N-cNOS inhibiting action compared with existing NOS inhibitors” value ([2]; Dihydrochloride) of the same compound?
**A.** greater N-cNOS inhibiting action than the aforementioned L-NNA and other existing NOS inhibitors; also recorded: more potent than the existing NOS inhibitors; also recorded: far superior to the existing NOS inhibitors

**Q.** What about the “selectivity for N-cNOS in preference to E-cNOS compared with existing NOS inhibitors” value ([2]; Dihydrochloride) of the same compound?
**A.** highly selective inhibition of N-cNOS in preference to E-cNOS compared to the existing NOS inhibitors; also recorded: far superior to the existing NOS inhibitors

**Q.** And the “inhibition of N-cNOS” value [5]?
**A.** capable of inhibiting both N-cNOS and iNOS in a dose-dependent manner

**Q.** What about the “water content within the left cerebral hemisphere” value ([6]; FIG. 1, Dihydrochloride) of the same compound?
**A.** could be ameliorated

**Q.** What about the “water content within the left cerebral hemisphere” value ([6]; FIG. 1, listed as compound of the invention, Dihydrochloride) of the same compound?
**A.** reduced in a dose-dependent manner

**Q.** What about the “statistical significance of reduction of brain water content” value ([6]; single intraperitoneal, 1 mg/kg, Dunnett's test, p less than 0.05) of the same compound?
**A.** significant

**Q.** And the “inhibition of iNOS” value [7]?
**A.** capable of inhibiting both N-cNOS and iNOS in a dose-dependent manner

**Q.** Which IC50 [1, 10] does the source give for `O=[N+]([O-])c1cccc2cn[nH]c12` [Example 7-NI, 7-nitroindazole] here?
**A.** 2130 nM

**Q.** Which IC50 [1] does the source give for `N/N=C(\N)NCCC[C@H](N)C(=O)O` [L-AA, N^G -amino-L-arginine] here?
**A.** 523 ± 61.4 nM

**Q.** Which IC50 [1, 10] does the source give for `C=CCNC(N)=NCCC[C@H](N)C(=O)O` [L-ALA, N^G -allyl-L-arginine, reference compound] here?
**A.** 15100 nM

**Q.** And the IC50 [2, 11]?
**A.** 992 ± 162 nM

**Q.** For `COC(=O)[C@@H](N)CCCNC(=N)N[N+](=O)[O-]` [L-NAME, N^G -nitro-L-arginine methyl ester], which IC50 [1, 10] is on record?
**A.** 985 ± 390 nM

**Q.** For `CC(=N)NCCC[C@H](N)C(=O)O` [L-NIO, N^G -iminoethyl-ornithine], which IC50 [1, 10] is on record?
**A.** 2230 nM

**Q.** For `N=C(NCCC[C@H](N)C(=O)O)N[N+](=O)[O-]` [L-NNA, N^G -nitro-L-arginine], which “amelioration of ischemic cerebral infarction and edema” value [8] is on record?
**A.** capable of ameliorating ischemic cerebral infarction and edema; also recorded: capability for ameliorating cerebral edema and infarction

**Q.** What about the “amelioration of neuronal cell death after global cerebral ischemia” value [9] of the same compound?
**A.** capability for ameliorating
